Data taken from patent US20240041899A1, “SOLID PREPARATION” (ASKA Pharmaceutical Co., Ltd., priority 2020, published 2024).

Key:
[1] = tested on: lower urinary tract obstruction model of rats (male); experiment: Test Example 2: urination function in lower urinary tract obstruction model of male rats; assay type: in vivo; conditions: oral once a day 14 days, 10 mg/kg, in comparison with Group C (dutasteride 0.5 mg/kg)
Source text: A lower urinary tract obstruction model of rats was used as a test system. A test substance was orally administered to the lower urinary tract obstruction model repeatedly over 14 days to examine the action on the urination function in the lower urinary tract obstruction model. The lower urinary tract obstruction model is not a benign prostatic hyperplasia model with enlarged prostate.
More specifically, the rats (male, Crl:CD(SD), 8-week-old; Charles River Laboratories Japan, Inc.) were operated to form lower urinary tract obstruction and repeatedly received oral administration of the test substance at a frequency of once a day over 14 days. After the completion of the administration, each rat was subjected to bladder catheterization under anesthesia and cystometry under no anesthesia and was evaluated for the residual urine volume and the urination efficiency.
The test substances and the dosage in the test system (male rats with lower urinary tract obstruction) are as follows. • Solvent group (control group): 0.5 v/v % Polysorbate 80 solution, 10 mL/kg (n=8) • Group A: Compound A, 10 mg/kg (n=12) • Group C: Compound C (dutasteride), 0.5 mg/kg (n=11)

[2] = tested on: rats having the urination disorder associated with diabetes; experiment: Test Example 6: urination disorder model associated with streptozocin-induced diabetes, compound A versus compound C; assay type: in vivo; conditions: STZ diabetes model
Method: As described below, a model of a urination disorder associated with streptozocin-induced diabetes was prepared as a urination disorder model in accordance with Test Example 4 to evaluate the effects of the compound A and the compound C on a urination disorder. This model has no benign prostatic hyperplasia and is a model of a urination disorder associated with neuropathy and smooth muscle contraction disorder.
The body weights of Rats (male, Crl:CD(SD), 5-week-old; Charles River Laboratories Japan, Inc.) were measured. On the basis of the body weight, the rats were grouped or divided into two (2) groups. The day after the rats were grouped, a first group received intraperitoneal administration of a citrate buffer (pH 4.5) (10 mL/kg) having a concentration of 0.1 mmol/L, and a second group received intraperitoneal administration of streptozocin (STZ; Sigma-Aldrich) (50 mg/kg). Streptozocin (STZ) was administered in the form of a solution of streptozocin having a concentration of 5 mg/mL in the citrate buffer.
About one (1) week after streptozocin (STZ) was administered, the body weight and the fasting blood glucose were measured. In the streptozocin (STZ) administration group (the second group), individuals having a fasting blood glucose level of not less than 300 mg/dL were used as animals with induced diabetes. These animals with induced diabetes are a model having no abnormality of the prostate (having no benign prostatic hyperplasia). On the basis of the body weight and the fasting blood glucose level, the animals (models) with induced diabetes were grouped or divided into three (3) groups by randomized, multivariable block allocation.
To the three model groups with induced diabetes, a 0.5 v/v % Polysorbate 80 solution (0.5% P) (10 mL/kg), the compound A (3 mg/kg), and the compound C (dutasteride) (0.3 mg/kg) were orally administered, respectively, wherein the administration schedule in all groups was a frequency of once a day, only on weekdays, over four (4) weeks. Moreover, to the above-mentioned first group, a 0.5 v/v % Polysorbate 80 solution (0.5% P) (10 mL/kg) was orally administered in the same administration schedule (normal group). On the last day of administration, a cannula was inserted into and secured to the dome of the bladder under isoflurane anesthesia, and cystometry (Cystometogram, CMG) was conducted in the order of under awake condition and under urethane anesthesia to measure the intravesical pressure, the voided volume, and the residual urine volume. After the completion of the measurement, the blood was collected under deep isoflurane anesthesia, and then the prostate (ventral prostate, dorsolateral prostate) was extracted and each was weighed. Moreover, the blood glucose level in the collected blood was measured.
Normal group: citrate buffer 10 mL/kg (intraperitoneal administration), 0.5% P 10 mL/kg (oral administration) (n=10) • Solvent group (control group): STZ 50 mg/kg (intraperitoneal administration), 0.5% P 10 mL/kg (oral administration) (n=10) • Group A3: STZ 50 mg/kg (intraperitoneal administration), Compound A 3 mg/kg (oral administration) (n=10) • Group C0.3: STZ 50 mg/kg (intraperitoneal administration), Compound C (dutasteride) 0.3 mg/kg (oral administration) (n=10)
Urination parameter: In the same manner as in Test Example 4, the residual urine volume (mL) and the urination efficiency (%) were determined as urination parameters in each urination, and the average value of two measurements was taken as a measured value of each individual.
Prostate weight: In the same manner as in Test Example 4, the weight of the prostate (ventral prostate, dorsolateral prostate, and whole) was converted to a tissue weight per 100 g of the body weight. For Group A3, which received the compound A, and Group C0.3, which received the compound C, the inhibition rate of the weight of the prostate relative to the weight of the prostate in the solvent group was calculated (with one decimal place). […]

[3] = Compound A 3 mg/kg, in comparison with the solvent group (p<0.05)
[4] = Compound A oral 3 mg/kg, 4 weeks
[5] = Compound A oral 3 mg/kg, relative to solvent group

CC(=O)O[C@]1(C(C)=O)C[C@@H](O)[C@H]2[C@@H]3C=C(Cl)C4=CC(=O)OC[C@]4(C)[C@H]3CC[C@@]21C [Compound A, 17α-acetoxy-6-chloro-15β-hydroxy-2-oxa-4,6-pregnadiene-3,20-dione]
urination function (the residual urine volume, the urination efficiency) [1]: strong improvement action | therapeutic effect on diabetes ([2]; Compound A 3 mg/kg): no therapeutic effect | weights of the ventral prostate, the dorsolateral prostate, and the whole prostate ([2]; Compound A 3 mg/kg, compared with the solvent group (P<0.05)): significant decrease | residual urine volume, cystometry (CMG) under awake condition [2, 3]: significantly decreased | urination efficiency, cystometry (CMG) under awake condition [2, 3]: significantly improved | bladder contraction force on urination by nomogram analysis ([2]; Compound A 3 mg/kg, in comparison with the solvent group and Group C0.3): strong bladder contraction force | effect on the blood glucose level ([2]; Compound A 3 mg/kg, vs solvent group): did not statistically affect | Blood glucose level [2, 4]: 972.4 ± 312.3 mg/dL | Prostate weight, dorsolateral prostate [2, 4]: 38.8 ± 4.2 mg/100 g body weight | Prostate weight, ventral prostate [2, 4]: 61.2 ± 12.4 mg/100 g body weight | Prostate weight, whole [2, 4]: 99.9 ± 15.5 mg/100 g body weight | Dorsolateral prostate atrophy rate [2, 5]: (40.2%) | Ventral prostate atrophy rate [2, 5]: (40.0%) | Whole prostate atrophy rate [2, 5]: (40.1%)
